# Key:
# [1] = molecular target: T1, 5-hydroxytryptamine receptor 7 (Homo sapiens, UniProt P34969); test: Displacement of [3H]LSD from human 5HT7 in sf9 cells at 1 uM; type: cell-based
# [2] = molecular target: T2, 5-hydroxytryptamine receptor 1A (Rattus norvegicus) (UniProt P19327); test: Binding affinity to rat 5HT1A at 0.01 uM
# T2 sequence (whole entry): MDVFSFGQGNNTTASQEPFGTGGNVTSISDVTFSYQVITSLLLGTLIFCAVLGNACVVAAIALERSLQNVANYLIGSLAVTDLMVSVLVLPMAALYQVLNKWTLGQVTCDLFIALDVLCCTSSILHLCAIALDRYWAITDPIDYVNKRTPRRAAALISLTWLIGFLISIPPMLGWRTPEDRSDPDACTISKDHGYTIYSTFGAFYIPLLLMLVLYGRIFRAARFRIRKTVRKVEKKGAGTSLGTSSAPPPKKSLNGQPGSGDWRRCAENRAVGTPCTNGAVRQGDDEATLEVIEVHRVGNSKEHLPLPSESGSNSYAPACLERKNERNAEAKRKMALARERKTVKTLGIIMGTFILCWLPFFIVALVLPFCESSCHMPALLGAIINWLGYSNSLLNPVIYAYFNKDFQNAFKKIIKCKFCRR
# [3] = molecular target: T1, 5-hydroxytryptamine receptor 7; test: Displacement of [3H]LSD from human 5HT7 in sf9 cells at 0.01 uM; type: cell-based
# [4] = molecular target: T2, 5-hydroxytryptamine receptor 1A (Rattus norvegicus); test: Binding affinity to rat 5HT1A at 1 uM
# [5] = Selectivity ratio of rat 5HT1A to human 5HT7
# [6] = molecular target: T1, 5-hydroxytryptamine receptor 7; test: Displacement of [3H]LSD from human 5HT7 in sf9 cells; type: cell-based
# [7] = molecular target: T3, 5-hydroxytryptamine receptor 1A (Rattus norvegicus, UniProt P19327); test: Binding affinity to rat 5HT1A
# T3 sequence (P19327 whole entry): T2 sequence (whole entry)
# [8] = molecular target: 5-hydroxytryptamine receptor 7 (Rattus norvegicus) (UniProt P32305); test: Antagonist activity at 5HT7 receptor stimulated aldosterone secretion from rat adrenal cortex; type: functional, tissue-based
# Sequence of 5-hydroxytryptamine receptor 7 (Rattus norvegicus) (P32305 whole entry): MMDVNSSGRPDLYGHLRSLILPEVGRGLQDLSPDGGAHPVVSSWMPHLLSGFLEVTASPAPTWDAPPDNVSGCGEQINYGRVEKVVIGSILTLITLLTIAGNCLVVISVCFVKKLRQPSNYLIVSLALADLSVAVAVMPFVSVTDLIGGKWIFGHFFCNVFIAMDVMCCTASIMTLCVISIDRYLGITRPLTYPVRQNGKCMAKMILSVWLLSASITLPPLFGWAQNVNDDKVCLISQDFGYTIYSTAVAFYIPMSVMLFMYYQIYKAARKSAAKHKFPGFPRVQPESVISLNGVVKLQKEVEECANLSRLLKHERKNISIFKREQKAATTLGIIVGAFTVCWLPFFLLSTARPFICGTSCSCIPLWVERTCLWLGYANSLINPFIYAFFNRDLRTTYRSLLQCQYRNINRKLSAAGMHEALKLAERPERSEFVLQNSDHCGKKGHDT
# T1 sequence (P34969 whole entry): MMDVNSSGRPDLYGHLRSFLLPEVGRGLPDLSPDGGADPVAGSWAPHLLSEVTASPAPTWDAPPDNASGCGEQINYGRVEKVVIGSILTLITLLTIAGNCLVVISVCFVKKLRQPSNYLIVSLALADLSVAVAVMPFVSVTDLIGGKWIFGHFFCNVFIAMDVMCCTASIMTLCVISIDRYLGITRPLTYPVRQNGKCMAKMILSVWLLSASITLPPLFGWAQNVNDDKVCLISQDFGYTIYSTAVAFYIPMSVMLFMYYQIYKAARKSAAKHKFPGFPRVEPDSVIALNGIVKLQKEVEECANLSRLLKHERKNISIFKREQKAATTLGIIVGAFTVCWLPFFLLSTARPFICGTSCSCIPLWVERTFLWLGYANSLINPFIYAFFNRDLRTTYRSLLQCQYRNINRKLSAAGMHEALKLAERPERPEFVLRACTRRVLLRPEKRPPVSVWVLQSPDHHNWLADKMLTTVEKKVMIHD
SMILES,inhibition [1] [%],inhibition [2] [%],inhibition [3] [%],inhibition [4] [%],Ratio Ki [5],Ki [6] [µM],Ki [7] [µM],Activity ([8]; filed as partial agonist),pKb [8]
CN(C)CCc1cccc(-c2cccs2)c1,75,6,12,63,,,,,
COc1cccc(OC)c1-c1cccc(CCN2CCOCC2)c1,9,7,0,14,,,,,
Cc1cccc(C)c1-c1cccc(CCN(C)C)c1,93,6,73,33,60,0.0062,2.25,,
CN(C)CCc1cccc(-c2ccccc2)c1,70,2,18,18,,,,,
COc1cccc(OC)c1-c1cccc(CCN(C)C)c1,100,3,50,18,60,0.0086,4.83,Partial agonist,
Cc1ccccc1-c1cccc(CCN)c1,92,0,71,37,,0.0075,1.47,,
Cc1cc(C)c(-n2ccc(CCN)c2)c(C)c1,0,0,0,0,,,,,
Cc1cccc(-n2ccc(CCN)c2)c1C,48,0,25,17,,,,,
Cc1cc(C)c(-n2ccc(CCN(C)C)c2)c(C)c1,56,0,3,20,,,,,
Cc1ccccc1-n1ccc(CCN)c1,62,0,5,16,,,,,
Cc1ccccc1-c1cccc(CCN(C)C)c1,81,1,72,85,,0.0076,0.443,,7.03
COc1ccc(-c2cccc(CCN(C)C)c2)cc1,52,0,9,37,,,,,
COc1ccc(-c2cccc(CCN(C)C)c2)cc1OC,38,12,0,52,,,,,
CN(C)CCc1cccc(-c2ccsc2)c1,87,20,12,64,,,,,
COc1ccccc1-c1cccc(CCN(C)C)c1,69,12,23,48,,0.0084,0.531,,
Cc1ccccc1-n1ccc(CCN(C)C)c1,87,14,16,41,,,,,
